The values that follow are results of earlier work, collected in patent publication US20050266049A1, “Method for the covering of food with polyene antifungal compositions” (D S M IP Assets B.V., priority 2002, published 2005).

Data set [1] relates to most foodborn fungi.

Regarding `C[C@@H]1C/C=C/C=C/C=C/C=C/[C@H](O[C@@H]2O[C@H](C)[C@@H](O)[C@H](N)[C@@H]2O)C[C@@H]2O[C@](O)(C[C@@H](O)C[C@H]3O[C@@H]3/C=C/C(=O)O1)C[C@H](O)[C@H]2C(=O)O` [natamycin], the “solubility of natamycin in water” value was 30-50 ppm. Moreover, the “Minimal Inhibitory Concentration (MIC)” value in data set [1] is recorded as “less than 10 ppm”.
